Tests used:
Assay type in all cases: in vivo
Settings in all cases: active ingredient amount 31 g/ha, 14th day after application
[1] = system: wheat (Triticum aestivum L.); assay: Test Example 2: soil application on the day after sowing, growth inhibition rate on 14th day
In short: (§1)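 Upland soil pots; sowing, then next-day soil spraying of compound formulations (1,000 L/ha water) at defined a.i. doses. Day-14 visual rating of inhibition on a 0–100 scale, where 100 means complete kill.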

[2] = system: crabgrass (Digitaris sanquinalis L.); assay: as above
In short: as §1

[3] = system: corn (Zea mays L.); assay: as above
In short: as §1

[4] = system: velvetleaf (Abutilon theophrasti MEDIC.); assay: as above
In short: as §1

[5] = system: rice (Oryza sativa L.); assay: as above
In short: as §1

[6] = system: barnyardgrass (Echinochloa crus-qalli L.); assay: as above
In short: as §1

[7] = system: redroot pigweed (Amaranthus retroflexus L.); assay: as above
In short: as §1

[8] = system: soybean (Glycine max Merr.); assay: as above
In short: as §1

[9] = system: green foxtail (Setaria viridis L.); assay: as above
In short: as §1

[10] = system: prickly sida (Sida spinosa L.); assay: as above
In short: as §1

[11] = system: wheat (Triticum aestivum L.); assay: Test Example 1: foliar treatment, growth inhibition rate on 14th day
In short: (§2)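 Using a small sprayer, formulated compound in water (0.1 vol % surfactant, 1,000 L/ha) was applied to seedlings grown from seed in upland soil. Fourteen days on, growth state was observed and expressed as percent inhibition from 0 to 100.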

[12] = system: corn (Zea mays L.); assay: as above
In short: as §2

[13] = system: rice (Oryza sativa L.); assay: as above
In short: (§3)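 Visual 0–100% inhibition scoring (100 = complete kill) at 14 days after foliar treatment of soil-grown seedlings at species-specific leaf stages, with the compound sprayed as a wettable powder or emulsifiable concentrate dilution.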

[14] = system: italian ryegrass (Lolium multiflorum Lam.); assay: as above
In short: as §2

[15] = system: barnyardgrass (Echinochloa crus-qalli L.); assay: as above
In short: as §2

[16] = system: redroot pigweed (Amaranthus retroflexus L.); assay: as above
In short: as §2

[17] = system: crabgrass (Digitaria sanquinalis L.); assay: as above
In short: as §2

[18] = system: soybean (Glycine max Merr.); assay: as above
In short: as §3

[19] = system: wild oat (Avena fatua L.); assay: as above
In short: as §3

[20] = system: green foxtail (Setaria viridis L.); assay: as above
In short: as §3

[21] = visual, 0 = non-treated, 100 = complete kill

SMILES | Growth inhibition rate (%) Wheat [1] [%] | Growth inhibition rate (%) Crabgrass [2] [%] | Growth inhibition rate (%) Corn [3] [%] | Growth inhibition rate (%) Velvetleaf [4] [%] | Growth inhibition rate (%) Rice [5] [%] | Growth inhibition rate (%) Barnyardgrass [6] [%] | Growth inhibition rate (%) Redroot pigweed [7] [%] | Growth inhibition rate (%) Soybean [8] [%] | Growth inhibition rate (%) Green foxtail [9] [%] | Growth inhibition rate (%) Prickly sida [10] [%] | Growth inhibition rate (%) Wheat [11] [%] | Growth inhibition rate (%) Corn [12] [%] | Growth inhibition rate (%) Rice [13] [%] | Growth inhibition rate (%) Italian ryegrass [14] [%] | Growth inhibition rate (%) Barnyardgrass [15] [%] | Growth inhibition rate (%) Redroot pigweed [16] [%] | Growth inhibition rate (%) Crabgrass [17] [%] | Growth inhibition rate (%) Soybean [18] [%] | Growth inhibition rate (%) Wild oat [19] [%] | Growth inhibition rate (%) Green foxtail [20] [%] | other results
CC(=O)Oc1c(C)nn(C)c(=O)c1-c1cc(Oc2ccc3cc(Br)ccc3n2)ccc1C [Compound 2-127] | 0 | 10 | 0 | 0 | 0 | 93 | 0 | 0 | 78 | 0 | 100 | 0 | 70 | 78 | 100 | 0 | 30 | 0 | 90 | 100 | 
CCn1nc(C)c(O)c(-c2cc(Oc3ncc(C(F)(F)F)cc3Cl)ccc2C)c1=O [1-65] | 0 | 100 | 0 | 0 | 20 | 100 | 0 | 0 | 99 | 0 | 10 | 98 | 60 | 98 | 99 | 0 | 100 | 0 | 98 | 100 | 
Cc1ccc(Oc2cnc3cc(Cl)ccc3n2)cc1-c1c(OS(=O)(=O)C(F)(F)F)c(C)nn(C)c1=O [Compound 3-69] | 0 | 30 | 0 | 0 | 0 | 93 | 0 | 0 | 95 | 0 |  |  |  |  |  |  |  |  |  |  | Growth inhibition rate (%) Wheat [11, 21]: 98%; Growth inhibition rate (%) Corn [12, 21]: 20%; Growth inhibition rate (%) Rice [13, 21]: 30%; Growth inhibition rate (%) Italian ryegrass [14, 21]: 99%; Growth inhibition rate (%) Barnyardgrass [15, 21]: 100%; Growth inhibition rate (%) Redroot pigweed [16, 21]: 0%; Growth inhibition rate (%) Crabgrass [17, 21]: 95%; Growth inhibition rate (%) Soybean [18, 21]: 0%; Growth inhibition rate (%) Wild oat [19, 21]: 99%; Growth inhibition rate (%) Green foxtail [20, 21]: 100%
CC(=O)Oc1c(C)nn(C)c(=O)c1-c1cc(Oc2ncc(C(F)(F)F)cc2Cl)ccc1C1CC1 [1-150] | 0 | 98 | 0 | 0 | 0 | 99 | 0 | 0 | 98 | 0 | 99 | 95 | 88 | 100 | 100 | 0 | 100 | 0 | 100 | 100 | 
